Common to all, as to type: cell-based
In assay [1] the test system is Pseudomonas aeruginosa #28. Nature of the assay: Minimal Inhibitory Concentration, Pseudomonas aeruginosa #28.
A further assay relates to Entero. cloacae. Nature of the assay: Minimal Inhibitory Concentration, Entero. cloacae. As to conditions: Enterobacter cloacae.
The next assay deals with Klebs. pneu. Kind of assay: Minimal Inhibitory Concentration, Klebs. pneu.
A further assay concerns Serr. marces. Kind of assay: Minimal Inhibitory Concentration, Serr. marces.
The next assay deals with Staph. aureus S18713. Kind of assay: Minimal Inhibitory Concentration, Staph. aureus S18713. The note with it: Staphylococcus aureus.

Values after ≈ are worked out from the molar mass of the structure shown.

In the case of `CC1(C)S[C@@H]2[C@H](NC(=O)[C@H](NC(=O)c3ccc(-c4cccc(NS(C)(=O)=O)c4)[nH]c3=O)c3ccccc3)C(=O)N2[C@H]1C(=O)O` [Example 1, N-[6-[3-(Methylsulfonylamino)phenyl]-1,2-dihydro-2-oxonicotinoyl]ampicillin], the MIC – broadly, the lowest concentration that inhibits growth of the organism – was 12.5 µg/mL (≈ 19.5 µM) in assay [1]; 6.3 µg/mL (≈ 9.85 µM) in the assay on Entero. cloacae; 1.6 µg/mL (≈ 2.5 µM) in the assay with Klebs. pneu.; 25 µg/mL (≈ 39.1 µM) in the assay with Serr. marces.; above 200 µg/mL with Staph. aureus S18713.
As to `CCCS(=O)(=O)Nc1ccc(-c2ccc(C(=O)N[C@@H](C(=O)N[C@@H]3C(=O)N4[C@@H]3SC(C)(C)[C@@H]4C(=O)O)c3ccccc3)c(=O)[nH]2)cc1` [Example 4, N-[6-[4-(Propylsulfonylamino)phenyl]-1,2-dihydro-2-oxonictinoyl]ampicillin], the MIC in assay [1] was determined as 3.1 µg/mL (≈ 4.64 µM); against Entero. cloacae, 6.3 µg/mL (≈ 9.43 µM); in the assay with Klebs. pneu. it was 3.1 µg/mL (≈ 4.64 µM); with Serr. marces., 50 µg/mL (≈ 74.9 µM); against Staph. aureus S18713 it was 100 µg/mL (≈ 150 µM).
As to `CC1(C)S[C@@H]2[C@H](NC(=O)[C@H](NC(=O)c3ccc(-c4ccc(NS(=O)(=O)C(F)(F)F)cc4)[nH]c3=O)c3ccccc3)C(=O)N2[C@H]1C(=O)O` [Example 5, N-[6-[4-(Trifluoromethylsulfonylamino)phenyl]-1,2-dihydro-2-oxonicotinoyl]ampicillin], the MIC in assay [1] was found to be 6.3 µg/mL (≈ 9.08 µM); against Entero. cloacae it was 6.3 µg/mL (≈ 9.08 µM); in the assay with Klebs. pneu., 3.1 µg/mL (≈ 4.47 µM); in the assay on Serr. marces. it was 200 µg/mL (≈ 288 µM); in the assay on Staph. aureus S18713, 200 µg/mL (≈ 288 µM).
On to `CC(=O)OCCCS(=O)(=O)Nc1ccc(-c2ccc(C(=O)N[C@@H](C(=O)N[C@@H]3C(=O)N4[C@@H]3SC(C)(C)[C@@H]4C(=O)O)c3ccccc3)c(=O)[nH]2)cc1` [Example 7, N-[6-[4-[3-(acetyloxy)propylsulfonylamino]phenyl]-1,2-dihydro-2-oxonicotinoyl]ampicillin], for which the MIC in assay [1] came out at 6.3 µg/mL (≈ 8.68 µM); in the assay with Entero. cloacae, 6.3 µg/mL (≈ 8.68 µM); against Klebs. pneu., 3.1 µg/mL (≈ 4.27 µM); with Serr. marces., 100 µg/mL (≈ 138 µM); in the assay on Staph. aureus S18713 it was 100 µg/mL (≈ 138 µM).
Regarding `CC1(C)S[C@@H]2[C@H](NC(=O)[C@H](NC(=O)c3ccc(-c4ccc(NS(=O)(=O)C(F)(F)F)cc4)[nH]c3=O)c3ccc(O)cc3)C(=O)N2[C@H]1C(=O)O` [Example 6, N[6-[4-(Trifluoromethylsulfonylamino)phenyl]-1,2-dihydro-2-oxonicotinoyl]amoxicillin], the MIC in assay [1] came to 12.5 µg/mL (≈ 17.6 µM); against Entero. cloacae it was 6.3 µg/mL (≈ 8.88 µM); in the assay with Klebs. pneu., 25 µg/mL (≈ 35.2 µM); against Serr. marces., 50 µg/mL (≈ 70.5 µM); in the assay on Staph. aureus S18713 it was 25 µg/mL (≈ 35.2 µM).
`CC1(C)S[C@@H]2[C@H](NC(=O)[C@H](NC(=O)c3ccc(-c4ccc(NS(C)(=O)=O)cc4)[nH]c3=O)c3ccccc3)C(=O)N2[C@H]1C(=O)O` [Example 2, N-[6-[4-(Methylsulfonylamino)phenyl]-1,2-dihydro-2-oxonicotinoyl]ampicillin]: the MIC in assay [1] worked out at 3.1 µg/mL (≈ 4.85 µM); with Entero. cloacae it was 6.3 µg/mL (≈ 9.85 µM); against Klebs. pneu., 3.1 µg/mL (≈ 4.85 µM); against Serr. marces., 50 µg/mL (≈ 78.2 µM); in the assay on Staph. aureus S18713, 100 µg/mL (≈ 156 µM).
Turning to `CC1(C)S[C@@H]2[C@H](NC(=O)[C@H](NC(=O)c3ccc(-c4ccc(NS(C)(=O)=O)cc4)[nH]c3=O)c3ccc(O)cc3)C(=O)N2[C@H]1C(=O)O` [Example 3], the MIC was 1.6 µg/mL (≈ 2.44 µM) in assay [1]; 3.1 µg/mL (≈ 4.73 µM) with Entero. cloacae; 3.1 µg/mL (≈ 4.73 µM) against Klebs. pneu.; 100 µg/mL (≈ 153 µM) in the assay with Serr. marces.; 100 µg/mL (≈ 153 µM) against Staph. aureus S18713.
Consider `CC1(C)S[C@@H]2[C@H](NC(=O)[C@H](NC(=O)c3ccc(-c4ccc(NS(=O)(=O)CCc5ccncc5)cc4)[nH]c3=O)c3ccccc3)C(=O)N2[C@H]1C(=O)O` [Example 8], for which the MIC stood at 6.3 µg/mL (≈ 8.62 µM) in assay [1]; 6.3 µg/mL (≈ 8.62 µM) against Entero. cloacae; 3.1 µg/mL (≈ 4.24 µM) in the assay on Klebs. pneu.; 100 µg/mL (≈ 137 µM) with Serr. marces.; 100 µg/mL (≈ 137 µM) in the assay on Staph. aureus S18713.
With `CC1(C)S[C@@H]2[C@H](NC(=O)[C@H](NC(=O)c3ccc(-c4ccc(NS(=O)(=O)c5cccnc5)cc4)[nH]c3=O)c3ccccc3)C(=O)N2[C@H]1C(=O)O` [Example 9, N-[6-[4-(3-pyridinylsulfonylamino)phenyl]-1,2-dihydro-2-oxonicotinoyl]ampicillin], the MIC turned out to be 12.5 µg/mL (≈ 17.8 µM) in assay [1]; 12.5 µg/mL (≈ 17.8 µM) with Entero. cloacae; 6.3 µg/mL (≈ 8.96 µM) in the assay with Klebs. pneu.; 100 µg/mL (≈ 142 µM) against Serr. marces.; 100 µg/mL (≈ 142 µM) in the assay with Staph. aureus S18713.
Turning to `CC1(C)S[C@@H]2[C@H](NC(=O)[C@H](NC(=O)c3ccc(-c4cccc(NS(=O)(=O)c5cccnc5)c4)[nH]c3=O)c3ccccc3)C(=O)N2[C@H]1C(=O)O` [Example 10, N-[6-[3-(3-pyridinylsulfonylamino)phenyl]-1,2-dihydro-2-oxonicotinoyl]ampicillin], the MIC in assay [1] is 12.5 µg/mL (≈ 17.8 µM); against Entero. cloacae it was 12.5 µg/mL (≈ 17.8 µM); in the assay with Klebs. pneu. it was 6.3 µg/mL (≈ 8.96 µM); against Serr. marces., 100 µg/mL (≈ 142 µM); against Staph. aureus S18713, above 200 µg/mL.

For the origin of these results see patent US4315014A, “Antibacterial amide compounds and pharmaceutical composition containing the same” (Warner-Lambert Company, priority 1980, dated 1982).
